Results published in a compilation of properties of binary mixtures (doi:10.1016/j.molliq.2014.08.031).

Assay: xn = mol fraction of the nth substance listed
Settings: 101 kPa

CCCC[n+]1ccn(C)c1.CS(=O)(=O)[O-] + O
Settings | electrical conductivity [S/m] | viscosity [mPa·s]
343.15 K, x2 = 0.7015 | – | 6.27
343.15 K, x2 = 0.704 | 2.68 | –
343.15 K, x2 = 0.7495 | – | 4.95
343.15 K, x2 = 0.785 | 4.03 | –
343.15 K, x2 = 0.796 | 4.19 | –
343.15 K, x2 = 0.8016 | – | 3.73
343.15 K, x2 = 0.861 | 7.01 | –
343.15 K, x2 = 0.9004 | – | 1.902
343.15 K, x2 = 0.9254 | – | 1.45
343.15 K, x2 = 0.929 | 9.33 | –
343.15 K, x2 = 0.9503 | – | 1.05
343.15 K, x2 = 0.951 | 9.42 | –
343.15 K, x2 = 0.968 | 8.73 | –
343.15 K, x2 = 0.975 | – | 0.672
344.15 K, x1 = 0.004 | 2.52 | –
344.15 K, x1 = 0.008 | 4.46 | –
344.15 K, x1 = 0.019 | 7.24 | –
344.15 K, x2 = 0.785 | 4.1 | –
344.15 K, x2 = 0.796 | 4.32 | –
344.15 K, x2 = 0.861 | 7.13 | –
344.15 K, x2 = 0.892 | 8.05 | –
344.15 K, x2 = 0.951 | 9.81 | –
345.15 K, x1 = 0.008 | 4.43 | –
345.15 K, x1 = 0.019 | 7.32 | –
345.15 K, x2 = 0.704 | 2.81 | –
345.15 K, x2 = 0.861 | 7.27 | –
345.15 K, x2 = 0.892 | 8.29 | –
345.15 K, x2 = 0.929 | 9.54 | –
346.15 K, x1 = 0.004 | 2.55 | –
346.15 K, x1 = 0.019 | 7.4 | –
346.15 K, x2 = 0.785 | 4.26 | –
346.15 K, x2 = 0.861 | 7.5 | –
346.15 K, x2 = 0.892 | 8.44 | –
346.15 K, x2 = 0.929 | 9.69 | –
346.15 K, x2 = 0.968 | 9.3 | –
347.15 K, x1 = 0.004 | 2.58 | –
347.15 K, x1 = 0.008 | 4.7 | –
347.15 K, x1 = 0.019 | 7.35 | –
347.15 K, x2 = 0.704 | 2.95 | –
347.15 K, x2 = 0.785 | 4.32 | –
347.15 K, x2 = 0.929 | 9.84 | –
347.15 K, x2 = 0.951 | 10.2 | –
347.15 K, x2 = 0.968 | 9.4 | –
348.15 K, x1 = 0.008 | 4.66 | –
348.15 K, x1 = 0.019 | 7.57 | –
348.15 K, x2 = 0.704 | 3.03 | –
348.15 K, x2 = 0.785 | 4.41 | –
348.15 K, x2 = 0.796 | 4.64 | –
348.15 K, x2 = 0.861 | 7.68 | –
348.15 K, x2 = 0.929 | 9.94 | –
348.15 K, x2 = 0.951 | 10.4 | –
348.15 K, x2 = 0.968 | 9.35 | –
349.15 K, x1 = 0.004 | 2.62 | –
349.15 K, x1 = 0.008 | 4.72 | –
349.15 K, x1 = 0.019 | 7.54 | –
349.15 K, x2 = 0.704 | 3.08 | –
349.15 K, x2 = 0.785 | 4.52 | –
349.15 K, x2 = 0.892 | 8.91 | –
349.15 K, x2 = 0.929 | 10.1 | –
349.15 K, x2 = 0.968 | 9.59 | –
350.15 K, x1 = 0.004 | 2.67 | –
350.15 K, x1 = 0.008 | 4.85 | –
350.15 K, x2 = 0.704 | 3.16 | –
350.15 K, x2 = 0.785 | 4.57 | –
350.15 K, x2 = 0.796 | 4.8 | –
350.15 K, x2 = 0.861 | 7.93 | –
350.15 K, x2 = 0.892 | 9.06 | –
350.15 K, x2 = 0.929 | 10.3 | –
350.15 K, x2 = 0.951 | 10.7 | –
350.15 K, x2 = 0.968 | 9.73 | –
351.15 K, x1 = 0.004 | 2.68 | –
351.15 K, x1 = 0.008 | 4.84 | –
351.15 K, x1 = 0.019 | 7.88 | –
351.15 K, x2 = 0.704 | 3.27 | –
351.15 K, x2 = 0.785 | 4.68 | –
351.15 K, x2 = 0.796 | 4.91 | –
351.15 K, x2 = 0.861 | 8.29 | –
351.15 K, x2 = 0.892 | 9.2 | –
351.15 K, x2 = 0.929 | 10.5 | –
351.15 K, x2 = 0.951 | 10.8 | –
351.15 K, x2 = 0.968 | 9.91 | –
352.15 K, x1 = 0.004 | 2.71 | –
352.15 K, x1 = 0.008 | 4.89 | –
352.15 K, x2 = 0.704 | 3.37 | –
352.15 K, x2 = 0.785 | 4.8 | –
352.15 K, x2 = 0.796 | 4.99 | –
352.15 K, x2 = 0.861 | 8.21 | –
352.15 K, x2 = 0.892 | 9.33 | –
352.15 K, x2 = 0.929 | 10.6 | –
352.15 K, x2 = 0.968 | 9.86 | –
353.15 K, x1 = 0.008 | 4.92 | –
353.15 K, x1 = 0.019 | 8.06 | –
353.15 K, x2 = 0.892 | 9.44 | –
353.15 K, x2 = 0.929 | 10.7 | –
353.15 K, x2 = 0.968 | 10.1 | –
354.15 K, x1 = 0.004 | 2.79 | –
354.15 K, x1 = 0.008 | 4.98 | –
354.15 K, x1 = 0.019 | 8.03 | –
354.15 K, x2 = 0.704 | 3.55 | –
354.15 K, x2 = 0.785 | 4.98 | –
354.15 K, x2 = 0.796 | 5.01 | –
354.15 K, x2 = 0.892 | 9.6 | –
354.15 K, x2 = 0.929 | 10.8 | –
354.15 K, x2 = 0.951 | 11.1 | –
354.15 K, x2 = 0.968 | 10.2 | –
355.15 K, x1 = 0.008 | 5.04 | –
355.15 K, x1 = 0.019 | 8.25 | –
355.15 K, x2 = 0.785 | 5.05 | –
355.15 K, x2 = 0.796 | 5.26 | –
355.15 K, x2 = 0.861 | 8.55 | –
355.15 K, x2 = 0.892 | 9.73 | –
355.15 K, x2 = 0.929 | 11 | –
355.15 K, x2 = 0.951 | 11.1 | –
356.15 K, x1 = 0.008 | 5.09 | –
356.15 K, x1 = 0.019 | 8.34 | –
356.15 K, x2 = 0.704 | 3.73 | –
356.15 K, x2 = 0.785 | 5.15 | –
356.15 K, x2 = 0.796 | 5.34 | –
356.15 K, x2 = 0.861 | 8.43 | –
356.15 K, x2 = 0.892 | 9.89 | –
356.15 K, x2 = 0.929 | 11.1 | –
356.15 K, x2 = 0.951 | 11.2 | –
356.15 K, x2 = 0.968 | 10.4 | –
357.15 K, x1 = 0.008 | 5.13 | –
357.15 K, x1 = 0.019 | 8.43 | –
357.15 K, x2 = 0.704 | 3.83 | –
357.15 K, x2 = 0.785 | 5.23 | –
357.15 K, x2 = 0.796 | 5.41 | –
357.15 K, x2 = 0.861 | 8.6 | –
357.15 K, x2 = 0.892 | 10 | –
357.15 K, x2 = 0.968 | 10.6 | –
358.15 K, x1 = 0.004 | 2.9 | –
358.15 K, x1 = 0.008 | 5.18 | –
358.15 K, x1 = 0.019 | 8.47 | –
358.15 K, x2 = 0.704 | 3.88 | –
358.15 K, x2 = 0.785 | 5.22 | –
358.15 K, x2 = 0.796 | 5.47 | –
358.15 K, x2 = 0.861 | 8.73 | –
358.15 K, x2 = 0.929 | 11.3 | –
358.15 K, x2 = 0.951 | 11.5 | –
358.15 K, x2 = 0.968 | 10.6 | –
